Legend:
[1] = target: Ephrin type-B receptor 4 (Homo sapiens) (UniProt P54760); details: Compound concentration 1000.0 nM
[2] = system: Epidermal growth factor receptor (Homo sapiens), P00533 [T790M]; details: Compound concentration 1000.0 nM
[3] = target: NUAK family SNF1-like kinase 1 (Homo sapiens) (UniProt O60285); details: Compound concentration 1000.0 nM
[4] = target: Serine/threonine-protein kinase PLK3 (Homo sapiens) (UniProt Q9H4B4); details: Compound concentration 1000.0 nM
[5] = target: D(1B) dopamine receptor (Homo sapiens) (UniProt P21918); details: Compound concentration 10.0 uM
D(1B) dopamine receptor (Homo sapiens), sequence (P21918 whole entry): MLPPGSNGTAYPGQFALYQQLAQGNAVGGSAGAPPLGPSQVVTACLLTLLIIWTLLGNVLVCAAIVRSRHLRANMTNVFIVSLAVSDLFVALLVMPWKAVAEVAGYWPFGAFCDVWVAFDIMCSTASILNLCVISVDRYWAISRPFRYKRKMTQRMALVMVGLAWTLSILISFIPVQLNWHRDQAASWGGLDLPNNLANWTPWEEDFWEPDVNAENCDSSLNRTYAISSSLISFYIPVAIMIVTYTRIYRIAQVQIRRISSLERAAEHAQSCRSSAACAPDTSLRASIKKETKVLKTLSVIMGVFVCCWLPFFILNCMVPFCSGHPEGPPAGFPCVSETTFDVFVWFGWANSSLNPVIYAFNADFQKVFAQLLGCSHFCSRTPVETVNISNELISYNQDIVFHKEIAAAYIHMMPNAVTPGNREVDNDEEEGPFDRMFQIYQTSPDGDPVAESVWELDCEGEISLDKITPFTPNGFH

[6] = target: Activin receptor type-1B (Homo sapiens) (UniProt P36896); details: Compound concentration 1000.0 nM
Activin receptor type-1B (Homo sapiens), sequence (P36896 whole entry): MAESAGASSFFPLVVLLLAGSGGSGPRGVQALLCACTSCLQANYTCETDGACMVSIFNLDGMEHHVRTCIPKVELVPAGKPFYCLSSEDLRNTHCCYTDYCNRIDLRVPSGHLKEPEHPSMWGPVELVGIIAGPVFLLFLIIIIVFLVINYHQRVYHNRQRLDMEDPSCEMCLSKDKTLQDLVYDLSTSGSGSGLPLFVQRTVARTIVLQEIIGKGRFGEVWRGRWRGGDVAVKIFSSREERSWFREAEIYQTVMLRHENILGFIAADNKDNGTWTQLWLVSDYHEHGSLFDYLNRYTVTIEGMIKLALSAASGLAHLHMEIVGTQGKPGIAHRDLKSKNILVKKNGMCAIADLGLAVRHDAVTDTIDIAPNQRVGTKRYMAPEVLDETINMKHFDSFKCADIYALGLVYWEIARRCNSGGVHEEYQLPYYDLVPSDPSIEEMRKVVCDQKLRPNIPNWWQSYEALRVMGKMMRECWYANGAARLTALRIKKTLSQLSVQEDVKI

[7] = system: Receptor-type tyrosine-protein kinase FLT3 (Homo sapiens), P36888 [UNDEFINED MUTATION]; details: Compound concentration 1000.0 nM
Receptor-type tyrosine-protein kinase FLT3 (Homo sapiens), P36888 [UNDEFINED MUTATION], sequence (P36888 whole entry, looked up, change not shown): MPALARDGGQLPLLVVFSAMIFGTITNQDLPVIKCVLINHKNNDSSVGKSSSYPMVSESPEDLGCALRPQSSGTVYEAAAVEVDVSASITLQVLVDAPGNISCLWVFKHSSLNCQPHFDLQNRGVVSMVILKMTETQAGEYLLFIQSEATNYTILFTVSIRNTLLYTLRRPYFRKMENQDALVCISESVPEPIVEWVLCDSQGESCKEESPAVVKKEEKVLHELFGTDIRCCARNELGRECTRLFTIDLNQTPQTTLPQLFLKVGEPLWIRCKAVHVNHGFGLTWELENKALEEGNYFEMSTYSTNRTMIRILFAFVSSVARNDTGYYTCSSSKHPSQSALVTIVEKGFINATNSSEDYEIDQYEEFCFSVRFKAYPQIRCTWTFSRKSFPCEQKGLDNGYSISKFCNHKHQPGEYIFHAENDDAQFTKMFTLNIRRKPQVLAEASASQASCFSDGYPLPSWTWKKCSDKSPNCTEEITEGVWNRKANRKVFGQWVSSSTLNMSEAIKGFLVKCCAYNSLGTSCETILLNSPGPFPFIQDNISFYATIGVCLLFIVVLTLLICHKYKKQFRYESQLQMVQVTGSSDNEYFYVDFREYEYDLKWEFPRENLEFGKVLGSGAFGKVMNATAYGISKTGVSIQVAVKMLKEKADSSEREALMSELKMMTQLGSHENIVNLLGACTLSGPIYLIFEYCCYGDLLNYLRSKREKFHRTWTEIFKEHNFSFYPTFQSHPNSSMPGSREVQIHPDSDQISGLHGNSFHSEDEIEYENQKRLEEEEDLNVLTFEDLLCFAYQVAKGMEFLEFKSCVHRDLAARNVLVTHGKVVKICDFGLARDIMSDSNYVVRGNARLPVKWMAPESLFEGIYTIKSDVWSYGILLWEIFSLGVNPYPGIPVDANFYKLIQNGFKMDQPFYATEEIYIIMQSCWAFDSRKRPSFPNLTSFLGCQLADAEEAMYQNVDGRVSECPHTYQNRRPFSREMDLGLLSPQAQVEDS

[8] = target: Serine/threonine-protein kinase TBK1 (Homo sapiens) (UniProt Q9UHD2); details: Compound concentration 1000.0 nM
Serine/threonine-protein kinase TBK1 (Homo sapiens), sequence (Q9UHD2 whole entry): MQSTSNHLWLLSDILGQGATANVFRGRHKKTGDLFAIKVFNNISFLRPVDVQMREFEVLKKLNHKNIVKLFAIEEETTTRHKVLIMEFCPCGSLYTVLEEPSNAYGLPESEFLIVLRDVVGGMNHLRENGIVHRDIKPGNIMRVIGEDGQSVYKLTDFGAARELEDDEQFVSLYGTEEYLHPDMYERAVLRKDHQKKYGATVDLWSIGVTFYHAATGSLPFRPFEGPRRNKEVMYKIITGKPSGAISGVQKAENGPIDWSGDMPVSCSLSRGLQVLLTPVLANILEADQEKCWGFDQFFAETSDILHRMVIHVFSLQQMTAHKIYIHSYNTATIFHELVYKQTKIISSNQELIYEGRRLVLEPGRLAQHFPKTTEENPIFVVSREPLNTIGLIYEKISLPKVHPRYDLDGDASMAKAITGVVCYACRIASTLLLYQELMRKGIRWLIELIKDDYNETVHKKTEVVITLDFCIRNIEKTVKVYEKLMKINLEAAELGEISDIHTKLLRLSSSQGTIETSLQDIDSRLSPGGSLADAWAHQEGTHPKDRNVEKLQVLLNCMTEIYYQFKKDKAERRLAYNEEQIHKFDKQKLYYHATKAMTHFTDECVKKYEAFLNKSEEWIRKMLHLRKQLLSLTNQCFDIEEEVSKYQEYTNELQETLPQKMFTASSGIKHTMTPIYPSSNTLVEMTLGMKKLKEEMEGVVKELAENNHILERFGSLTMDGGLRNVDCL

[9] = target: SRSF protein kinase 1 (Homo sapiens) (UniProt Q96SB4); details: Compound concentration 1000.0 nM
SRSF protein kinase 1 (Homo sapiens), sequence (Q96SB4 whole entry): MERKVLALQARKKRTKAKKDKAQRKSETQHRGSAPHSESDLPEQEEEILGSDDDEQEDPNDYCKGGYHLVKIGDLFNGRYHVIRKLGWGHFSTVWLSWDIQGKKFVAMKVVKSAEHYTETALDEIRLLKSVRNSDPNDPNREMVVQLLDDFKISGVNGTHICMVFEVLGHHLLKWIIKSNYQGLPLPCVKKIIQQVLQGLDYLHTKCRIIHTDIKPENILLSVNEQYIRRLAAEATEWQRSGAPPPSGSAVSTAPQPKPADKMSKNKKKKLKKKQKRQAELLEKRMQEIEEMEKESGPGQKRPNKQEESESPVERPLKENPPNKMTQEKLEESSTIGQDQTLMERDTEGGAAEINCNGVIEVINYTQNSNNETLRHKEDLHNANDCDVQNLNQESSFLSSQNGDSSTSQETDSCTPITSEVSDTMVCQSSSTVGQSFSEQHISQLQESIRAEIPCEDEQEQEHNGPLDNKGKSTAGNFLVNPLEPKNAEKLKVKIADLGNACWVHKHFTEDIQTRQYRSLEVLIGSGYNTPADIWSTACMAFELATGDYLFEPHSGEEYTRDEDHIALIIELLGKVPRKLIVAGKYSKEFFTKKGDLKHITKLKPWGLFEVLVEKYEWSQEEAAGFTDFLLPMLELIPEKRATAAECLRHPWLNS

Serine/threonine-protein kinase PLK3 (Homo sapiens), sequence (Q9H4B4 whole entry, looked up): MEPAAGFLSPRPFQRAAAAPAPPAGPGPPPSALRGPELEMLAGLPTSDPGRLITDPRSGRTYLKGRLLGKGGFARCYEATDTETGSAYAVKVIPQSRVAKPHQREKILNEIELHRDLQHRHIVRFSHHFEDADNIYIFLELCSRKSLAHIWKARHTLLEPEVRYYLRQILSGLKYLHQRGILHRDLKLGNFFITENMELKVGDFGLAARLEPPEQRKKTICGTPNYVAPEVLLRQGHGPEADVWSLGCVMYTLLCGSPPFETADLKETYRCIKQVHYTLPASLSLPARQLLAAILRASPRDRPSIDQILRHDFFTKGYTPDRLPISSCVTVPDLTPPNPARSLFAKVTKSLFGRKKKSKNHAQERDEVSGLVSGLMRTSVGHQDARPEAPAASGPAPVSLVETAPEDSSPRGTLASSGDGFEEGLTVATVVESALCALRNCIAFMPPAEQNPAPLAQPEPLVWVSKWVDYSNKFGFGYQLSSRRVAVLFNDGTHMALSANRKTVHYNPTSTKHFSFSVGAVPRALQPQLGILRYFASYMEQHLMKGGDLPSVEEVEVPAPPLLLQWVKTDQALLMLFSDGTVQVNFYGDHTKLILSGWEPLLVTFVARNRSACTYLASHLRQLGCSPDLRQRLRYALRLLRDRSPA
NUAK family SNF1-like kinase 1 (Homo sapiens), sequence (O60285 whole entry): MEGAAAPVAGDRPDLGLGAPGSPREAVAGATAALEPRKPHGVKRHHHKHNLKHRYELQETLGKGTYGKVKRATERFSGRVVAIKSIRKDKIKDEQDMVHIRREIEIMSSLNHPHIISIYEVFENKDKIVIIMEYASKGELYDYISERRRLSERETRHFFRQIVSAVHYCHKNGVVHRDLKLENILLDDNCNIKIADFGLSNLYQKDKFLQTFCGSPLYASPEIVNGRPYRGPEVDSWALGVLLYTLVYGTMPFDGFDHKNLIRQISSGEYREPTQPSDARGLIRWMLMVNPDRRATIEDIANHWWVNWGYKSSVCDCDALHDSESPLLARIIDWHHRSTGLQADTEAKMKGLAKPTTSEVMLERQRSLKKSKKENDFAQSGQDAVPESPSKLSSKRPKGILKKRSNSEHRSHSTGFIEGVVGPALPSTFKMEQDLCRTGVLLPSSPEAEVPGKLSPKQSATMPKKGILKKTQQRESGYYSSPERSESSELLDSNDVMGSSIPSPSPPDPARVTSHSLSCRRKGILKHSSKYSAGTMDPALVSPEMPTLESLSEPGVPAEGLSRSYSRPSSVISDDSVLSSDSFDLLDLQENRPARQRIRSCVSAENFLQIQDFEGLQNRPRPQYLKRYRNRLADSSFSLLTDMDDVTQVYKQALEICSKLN

COc1cccc(CNC(=O)c2nc3scc(COCc4ccc(C(=O)O)cc4)c3c(=O)[nH]2)c1 [T-26c]
inactive: residual activity [1] 89.4% | residual activity [2] 92.1% | residual activity [3] 86.6% | residual activity [4] 65.3% | inhibition [5] 11.9% | residual activity [6] 89.4% | residual activity [7] 58.4% | residual activity [8] 94% | residual activity [9] 100%

Reference: ChEMBL document CHEMBL4507300 (2021)
